This is an account of results in PMC6736568, “Discovery of Novel Anti-cryptosporidial Activities From Natural Products by in vitro High-Throughput Phenotypic Screening” (Frontiers in Microbiology, 2019).

Data set [1] concerns HCT-8 host cells (Hs18S).
The test system of data set [2] is Cryptosporidium parvum. The experiment in a line: qRT-PCR assay of the growth of C. parvum in vitro in HCT-8 host cells (primary and secondary screening, EC50). Format: cell-based. To be noted: Cryptosporidium parvum, HCT-8; for inhibition at 10 µM: primary screening at 10 uM, read-out: Inhibition (%).
Data set [3] is described as follows: in vitro. To be noted: for cytotoxicity at 41 h, 10 µM: human.
Where [4] appears, read: primary screening at 10 uM, treated vs control.

The structures appear in SMILES notation. Read-outs that look alike come from different tables or passages of the source.

What is called inhibition is the drop in the measured response relative to a control, in per cent. For `CC12CCCC(O)(C1)C1CC(C)(C)C1CC2` (stereo not drawn) [beta-CARYOPHYLLENE ALCOHOL], the “Hs18S ΔCT” value in data set [1] (human, 41 h, 10 μM) is recorded as 0.03. Also, the inhibition at 10 µM in data set [2] stood at 24.2%. Besides, the cytotoxicity at 41 h, 10 µM in data set [3] was determined as 1.9%.

With `CCCCCC1C(=O)CCC1CC(=O)OC` (stereo not shown) [DIHYDROJASMONIC ACID, METHYL ESTER], in data set [1] (human, 41 h, 10 μM), the “Hs18S ΔCT” value is recorded as -0.06. Further, the inhibition at 10 µM in data set [2] was -8.77%. Besides, the cytotoxicity at 41 h, 10 µM in data set [3] was -4%.

Turning to `O=C(O)CCCCCCCC(=O)O` [AZELAIC ACID], in data set [1] (human, 41 h, 10 μM), the “Hs18S ΔCT” value was 0.03. Further, in data set [2], the inhibition at 10 µM was 6.72%. Moreover, the cytotoxicity at 41 h, 10 µM in data set [3] was 1.8%.

As for `CC1=CC2C(CC1=O)C(C)=CCC2C(C)C` (stereo not shown) [MUUROLLADIE-3-ONE], the “Hs18S ΔCT” value in data set [1] (human, 41 h, 10 μM) was -0.02. In data set [2], the inhibition at 10 µM was -7.55%. Besides, the cytotoxicity at 41 h, 10 µM in data set [3] was -1.7%.

Take `CC1=CC(=O)c2ccccc2C1=O` [MENADIONE]: the “Hs18S ΔCT” value in data set [1] (human, 41 h, 10 μM) was found to be 0.49. The inhibition at 10 µM in data set [2] was -2.86%. Also, the cytotoxicity at 41 h, 10 µM in data set [3] came to 29%.

For `CN1[C@@H]2CC[C@H]1C[C@@H](OC(=O)[C@H](CO)c1ccccc1)C2` [HYOSCYAMINE], the “Hs18S ΔCT” value in data set [1] (setting [4]) is reported as -0.12. Further, the inhibition at 10 µM in data set [2] was found to be 36.2%. Also, in data set [3], the cytotoxicity at 10 µM is -8.9%.

On to `COC1=CC(=O)C=C(OC)C1=O` [2,6-DIMETHOXYQUINONE], for which the “Hs18S ΔCT” value in data set [1] (setting [4]) is recorded as -0.06. Further, the inhibition at 10 µM in data set [2] is -5.86%. In addition, in data set [3], the cytotoxicity at 10 µM was -4.3%.

`C[C@H](CCC(=O)O)[C@H]1CC[C@H]2[C@@H]3[C@H](O)C[C@@H]4C[C@H](O)CC[C@]4(C)[C@H]3CC[C@]12C` [CHENODIOL]: the “Hs18S ΔCT” value in data set [1] (human, 41 h, 10 μM) was determined as 0.27. The inhibition at 10 µM in data set [2] came to 77.7%. The cytotoxicity at 41 h, 10 µM in data set [3] amounted to 17.2%.

In the case of `C=C(C)[C@H]1Cc2c(ccc3c(=O)c4c(oc23)COc2cc(OC)c(OC)cc2-4)O1` [DEHYDROROTENONE], in data set [1] (setting [4]), the “Hs18S ΔCT” value is on record as -0.07. Also, the inhibition at 10 µM in data set [2] was -38.5%. Also, the cytotoxicity at 10 µM in data set [3] was -4.9%.

Regarding `COc1ccc(C(=O)O)c(O)c1OC` [2-HYDROXY-3,4-DIMETHOXYBENZOIC ACID], in data set [1] (human, 41 h, 10 μM), the “Hs18S ΔCT” value is 0.16. In addition, the inhibition at 10 µM in data set [2] was 7.69%. Also, the cytotoxicity at 41 h, 10 µM in data set [3] worked out at 10.5%.

`C[C@H]1[C@H](C)CC[C@]2(C(=O)O)CC[C@]3(C)C(=CC[C@@H]4[C@@]5(C)C[C@@H](O)[C@H](O)[C@@](C)(CO)[C@@H]5CC[C@]43C)[C@H]12` [ASIATIC ACID]: in data set [1] (human, 41 h, 10 μM), the “Hs18S ΔCT” value is given as -0.29. Moreover, the inhibition at 10 µM in data set [2] worked out at 25.1%. Besides, the cytotoxicity at 41 h, 10 µM in data set [3] is -22.7%.

Regarding `COc1cc(O)c2c(=O)cc(-c3ccc(O)cc3)oc2c1` [GENKWANIN], the “Hs18S ΔCT” value in data set [1] (setting [4]) is listed as -0.83. For the same molecule, the inhibition at 10 µM in data set [2] is -9.13%. Also, the cytotoxicity at 10 µM in data set [3] was -77.7%.

As to `COc1cc(C)c2c(c1C=O)Oc1c(c(C)c(O)c3c1C(O)OC3=O)OC2=O` (stereo not shown) [STICTIC ACID], the “Hs18S ΔCT” value in data set [1] (human, 41 h, 10 μM) is 0.08. In addition, in data set [2], the inhibition at 10 µM was -0.45%. For the same molecule, the cytotoxicity at 41 h, 10 µM in data set [3] is 5.5%.

`CC1=C(/C=C/C(C)=C/C=C/C(C)=C/C=C/C=C(C)/C=C/C=C(C)/C=C/C2=C(C)C(=O)[C@@H](O)CC2(C)C)C(C)(C)C[C@H](O)C1=O` [ASTAXANTHIN]: in data set [1] (human, 41 h, 10 μM), the “Hs18S ΔCT” value is -0.43. Besides, the inhibition at 10 µM in data set [2] is 45.1%. Moreover, in data set [3], the cytotoxicity at 41 h, 10 µM was -34.8%.

Turning to `Nc1nc2c(c(=O)[nH]1)N=C(CNc1ccc(C(=O)N[C@@H](CCC(=O)O)C(=O)O)cc1)CN2` [DIHYDROFOLIC ACID], the “Hs18S ΔCT” value in data set [1] (human, 41 h, 10 μM) is -0.36. Further, the inhibition at 10 µM in data set [2] was -11.9%. Moreover, the cytotoxicity at 41 h, 10 µM in data set [3] is -28.7%.

As to `O=C(/C=C/c1ccccc1)c1ccc(O)cc1O` [2',4'-DIHYDROXYCHALCONE], the “Hs18S ΔCT” value in data set [1] (human, 41 h, 10 μM) is reported as 0.09. The inhibition at 10 µM in data set [2] turned out to be 6.05%. In addition, the cytotoxicity at 41 h, 10 µM in data set [3] was found to be 6.1%.

As to `C=CCc1ccc(OC)cc1` [ESTRAGOLE], in data set [1] (setting [4]), the “Hs18S ΔCT” value was -0.22. Further, in data set [2], the inhibition at 10 µM turned out to be 99.6%. In addition, the inhibition at 3.3 µM in data set [2] (secondary screening at 3.3 uM, read-out: % Inhibition (3.3 uM)) came to 15%. Besides, in data set [3], the cytotoxicity at 10 µM is -16.6%.

As for `COc1ccc2c(=O)c(CC(=O)O)coc2c1` [ANHYDROBRAZILIC ACID], in data set [1] (human, 41 h, 10 μM), the “Hs18S ΔCT” value is -0.01. In addition, the inhibition at 10 µM in data set [2] was determined as 11.9%. For the same molecule, the cytotoxicity at 41 h, 10 µM in data set [3] was -0.5%.

Take `C[C@H]1O[C@@H](O[C@H]2[C@@H](O)C[C@H](O[C@H]3[C@@H](O)C[C@H](O[C@H]4CC[C@@]5(C)[C@H](CC[C@@H]6[C@@H]5CC[C@]5(C)[C@@H](C7=CC(=O)OC7)[C@@H](O)C[C@]65O)C4)O[C@@H]3C)O[C@@H]2C)C[C@H](O)[C@@H]1O` [GITOXIN]: in data set [1] (setting [4]), the “Hs18S ΔCT” value came out at 0.08. Moreover, the inhibition at 10 µM in data set [2] was determined as 35.4%. Further, in data set [3], the cytotoxicity at 10 µM worked out at 5.4%.

Consider `O=c1c(O)cc([C@H]2Oc3cc(O)cc(O)c3C[C@H]2O)cc2c([C@H]3Oc4cc(O)cc(O)c4C[C@H]3O)cc(O)c(O)c12` [THEAFLAVIN], for which the “Hs18S ΔCT” value in data set [1] (human, 41 h, 10 μM) was 0.11. Besides, the inhibition at 10 µM in data set [2] stood at 10.2%. Besides, in data set [3], the cytotoxicity at 41 h, 10 µM came to 7.6%.
